Data on 27 compounds can be found in ChEMBL document CHEMBL5518177, “Discovery of GPX4 inhibitors through FP-based high-throughput screening” (Eur J Med Chem, 2024).

Assay [1] is filed under the species Homo sapiens. Nature of the assay: Non-covalent binding to N-terminal 6His-TEV-tagged recombinant human GPX4-U46C-C10A-C66A mutant (Met1 to Phe170 residues) expressed in Escherichia coli BL21 (DE3) cells by mass spectrum analysis.
Assay [2] can be described thus: Binding affinity to N-terminal 6His-TEV-tagged recombinant human GPX4-U46C-C10A-C66A mutant (Met1 to Phe170 residues) expressed in Escherichia coli BL21 (DE3) cells assessed as dissociation constant incubated for 10 mins by microscale thermophoresis assay.
The species entered for assay [3] is Homo sapiens. Nature of the assay: Inhibition of N-terminal 6His-TEV-tagged recombinant human GPX4-U46C-C10A-C66A mutant (Met1 to Phe170 residues) expressed in Escherichia coli BL21 (DE3) cells using tert-butyl peroxide as substrate assessed as Km at 50 uM preincubated for 10 mins in presence of NADPH and GSH followed by substrate addition and measured after 30 mins by absorbance based plate reader analysis (reference value: 36.04 +/- 7.80 microM). The note with it: time 40.0 min.

The species named for assay [4] is Homo sapiens. Nature of the assay: Inhibition of N-terminal 6His-TEV-tagged recombinant human GPX4-U46C-C10A-C66A mutant (Met1 to Phe170 residues) expressed in Escherichia coli BL21 (DE3) cells at 1 to 100 uM incubated for 20 mins by fluorescence polarization based high-throughput screening assay. The note with it: dose 1-100 µM. In general terms: Polarisation of emitted light reports the rotation of a fluorescent probe.

The species entered for assay [5] is Homo sapiens. Put plainly: Inhibition of N-terminal 6His-TEV-tagged recombinant human GPX4-U46C-C10A-C66A mutant (Met1 to Phe170 residues) expressed in Escherichia coli BL21 (DE3) cells using tert-butyl peroxide as substrate assessed as Km at 30 uM preincubated for 10 mins in presence of NADPH and GSH followed by substrate addition and measured after 30 mins by absorbance based plate reader analysis (reference value: 36.04 +/- 7.80 microM). Conditions: time 40.0 min.

The species entered for assay [6] is Homo sapiens. Put plainly: Inhibition of N-terminal 6His-TEV-tagged recombinant human GPX4-U46C-C10A-C66A mutant (Met1 to Phe170 residues) expressed in Escherichia coli BL21 (DE3) cells using tert-butyl peroxide as substrate assessed as Vmax at 10 uM preincubated for 10 mins in presence of NADPH and GSH followed by substrate …. The note with it: time 40.0 min.
Assay [7] is filed under the species Homo sapiens. Nature of the assay: Inhibition of N-terminal 6His-TEV-tagged recombinant human GPX4-U46C-C10A-C66A mutant (Met1 to Phe170 residues) expressed in Escherichia coli BL21 (DE3) cells using tert-butyl peroxide as substrate assessed as Km at 10 uM preincubated for 10 mins in presence of NADPH and GSH followed by substrate …. Conditions: time 40.0 min.
A short description of assay [8]: Inhibition of N-terminal 6His-TEV-tagged recombinant human GPX4-U46C-C10A-C66A mutant (Met1 to Phe170 residues) expressed in Escherichia coli BL21 (DE3) cells using tert-butyl hydroperoxide as substrate preincubated for 10 mins in presence of NADPH and GSH followed by substrate addition and measured after 30 mins by absorbance based plate reader analysis.
The species named for assay [9] is Homo sapiens. Nature of the assay: Inhibition of N-terminal 6His-TEV-tagged recombinant human GPX4-U46C-C10A-C66A mutant (Met1 to Phe170 residues) expressed in Escherichia coli BL21 (DE3) cells using tert-butyl peroxide as substrate assessed as Vmax at 50 uM preincubated for 10 mins in presence of NADPH and GSH followed by substrate addition and measured after 30 mins by absorbance based plate reader analysis (reference value: 0.556 +/- 0.058 nM/min). Conditions: time 40.0 min.

For assay [10], the species on record is Homo sapiens. Put plainly: Inhibition of N-terminal 6His-TEV-tagged recombinant human GPX4-U46C-C10A-C66A mutant (Met1 to Phe170 residues) expressed in Escherichia coli BL21 (DE3) cells using tert-butyl peroxide as substrate assessed as Vmax at 40 uM preincubated for 10 mins in presence of NADPH and GSH followed by substrate addition and measured after 30 mins by absorbance based plate reader analysis (reference value: 0.556 +/- 0.058 nM/min). Conditions: time 40.0 min.

For assay [11], the species on record is Homo sapiens. Put plainly: Inhibition of N-terminal 6His-TEV-tagged recombinant human GPX4-U46C-C10A-C66A mutant (Met1 to Phe170 residues) expressed in Escherichia coli BL21 (DE3) cells using tert-butyl peroxide as substrate assessed as Vmax at 30 uM preincubated for 10 mins in presence of NADPH and GSH followed by substrate addition and measured after 30 mins by absorbance based plate reader analysis (reference value: 0.556 +/- 0.058 nM/min). The note with it: time 40.0 min.

The species entered for assay [12] is Homo sapiens. Nature of the assay: Reversible inhibition of N-terminal 6His-TEV-tagged recombinant human GPX4-U46C-C10A-C66A mutant (Met1 to Phe170 residues) expressed in Escherichia coli BL21 (DE3) cells by mass spectrum analysis.
For assay [13], the species on record is Homo sapiens. Nature of the assay: Inhibition of N-terminal 6His-TEV-tagged recombinant human GPX4-U46C-C10A-C66A mutant (Met1 to Phe170 residues) expressed in Escherichia coli BL21 (DE3) cells using tert-butyl peroxide as substrate assessed as Km at 40 uM preincubated for 10 mins in presence of NADPH and GSH followed by substrate addition and measured after 30 mins by absorbance based plate reader analysis (reference value: 36.04 +/- 7.80 microM). The note with it: time 40.0 min.

Assay [14] is described as follows: Binding affinity to N-terminal 6His-TEV-tagged recombinant human GPX4-U46C-C10A-C66A mutant (Met1 to Phe170 residues) expressed in Escherichia coli BL21 (DE3) cells incubated for 20 mins in presence of FITC-labeled peptide by fluorescence polarization based competitive binding assay. In kind it is cell-based.
The nature of assay [15]: Inhibition of N-terminal 6His-TEV-tagged recombinant human GPX4-U46C-C10A-C66A mutant (Met1 to Phe170 residues) expressed in Escherichia coli BL21 (DE3) cells incubated for 20 mins by fluorescence polarization based high-throughput screening assay.
For assay [16], the species on record is Homo sapiens. Put plainly: Inhibition of N-terminal 6His-TEV-tagged recombinant human GPX4-U46C-C10A-C66A mutant (Met1 to Phe170 residues) expressed in Escherichia coli BL21 (DE3) cells using tert-butyl peroxide as substrate assessed as Km at 20 uM preincubated for 10 mins in presence of NADPH and GSH followed by substrate addition and measured after 30 mins by absorbance based plate reader analysis (reference value: 36.04 +/- 7.80 microM). Conditions: time 40.0 min.

For assay [17], the species on record is Homo sapiens. Nature of the assay: Inhibition of N-terminal 6His-TEV-tagged recombinant human GPX4-U46C-C10A-C66A mutant (Met1 to Phe170 residues) expressed in Escherichia coli BL21 (DE3) cells using tert-butyl peroxide as substrate assessed as Vmax at 20 uM preincubated for 10 mins in presence of NADPH and GSH followed by substrate addition and measured after 30 mins by absorbance based plate reader analysis (reference value: 0.556 +/- 0.058 nM/min). Conditions: time 40.0 min.

SMILES strings stand for the structures. Activity calls are given as the source filed them. No cut-off for these calls is given here.

In general, Kd refers to the constant that tells how readily two partners part at equilibrium. By Km is commonly meant the concentration of substrate that gives half-maximal velocity. Broadly, the Vmax is the top rate of the reaction or transport when substrate is in excess. What is called IC50 is the concentration needed to halve the response being measured.

For the compound `Cc1c(N(C)CS(=O)(=O)O)c(=O)n(-c2ccccc2)n1C` [DIPYRONE SODIUM], the result in the assay filed under Homo sapiens [1] was Active. Moreover, the Kd in assay [2] worked out at 5.23 µM. For the same compound, the Km is 11.9 µM in the assay filed under Homo sapiens [3]; 15.7 µM in the assay filed under Homo sapiens [5]; 23.4 µM in the assay filed under Homo sapiens [7]; 12.1 µM in the assay listed under Homo sapiens [13]; 17.2 µM in the assay filed under Homo sapiens [16]. For the same compound, the inhibition entry in the assay filed under Homo sapiens [4] was “Active”. Further, the Vmax in the assay filed under Homo sapiens [6] is 0.439 nM/min; in the assay filed under Homo sapiens [9], 0.289 nM/min; in the assay filed under Homo sapiens [10] it was 0.306 nM/min; in the assay listed under Homo sapiens [11], 0.345 nM/min; in the assay filed under Homo sapiens [17], 0.361 nM/min. In addition, the IC50 was determined as 31.1 µM in assay [8], 4.75 µM in [14] and 1.4 µM in assay [15]. Besides, the inhibition entry in the assay listed under Homo sapiens [12] was “Dose-Dependent Effect”.

With `C=CC1=C(C)C(=O)N/C1=C\c1[nH]c(Cc2[nH]c(/C=C3\NC(=O)C(C)=C3C=C)c(C)c2CCC(=O)O)c(CCC(=O)O)c1C`, in the assay filed under Homo sapiens [4], the inhibition result was “Active”. For the same compound, in assay [15], the IC50 amounted to 4.58 µM.

In the case of `O=C(O)[C@H](O)Cc1ccc(O)c(O)c1`, the inhibition entry in the assay listed under Homo sapiens [4] was “Active”. In addition, the IC50 in [15] came to 6.54 µM.

Take `CC(C)c1c(NCS(=O)(=O)O)c(=O)n(-c2ccccc2)n1C`: the IC50 in [14] turned out to be 4.6 µM.

In the case of `CNC(=O)CN(C)c1c(C)n(C)n(-c2ccccc2)c1=O`, the IC50 in assay [14] is greater than 100 µM.

For `Cc1c(NCS(=O)(=O)O)c(=O)n(-c2ccc(-c3ccoc3)cc2)n1C`, the IC50 in [14] was 8.51 µM.

As for `Cc1c(S(=O)(=O)O)oc2c1C(=O)C(=O)c1c-2ccc2c1CCCC2(C)C` [SODIUM TANSHINONE IIA SULFONATE], the inhibition entry in the assay listed under Homo sapiens [4] is “Active”. In addition, in assay [15], the IC50 stood at 13.8 µM.

`Cc1c(NCS(=O)(=O)O)c(=O)n(-c2ccccc2-c2ccoc2)n1C`: the IC50 in assay [14] is 5.74 µM.

As to `Cc1c(NCS(=O)(=O)O)c(=O)n(-c2ccccn2)n1C`, in assay [14], the IC50 is 3.54 µM.

Consider `Cc1c(NCC(=O)O)c(=O)n(-c2ccccc2)n1C`, for which the IC50 in [14] was greater than 100 µM.

For the compound `Cc1c(NCS(=O)(=O)O)c(=O)n(-c2ccccc2)n1C(C)C`, in assay [14], the IC50 was greater than 100 µM.

On to `N[C@@H](CO)C(=O)NNCc1ccc(O)c(O)c1O`, for which the inhibition result in the assay listed under Homo sapiens [4] is “Active”. The IC50 in assay [15] came out at 7.52 µM.

In the case of `CCc1c(NCS(=O)(=O)O)c(=O)n(-c2ccccc2)n1C`, the IC50 in [14] was greater than 100 µM.

Consider `Cc1c(NCS(=O)(=O)O)c(=O)n(-c2cccc(-c3ccc(Br)cc3)c2)n1C`, for which the IC50 in assay [14] came out at 9.63 µM.

Regarding `Cc1c(NCS(=O)(=O)O)c(=O)n(-c2ccccc2Br)n1C`, the IC50 in assay [14] turned out to be 12.1 µM.

As for `Cc1c(NCS(=O)(=O)O)c(=O)n(-c2ccc(-c3ccccc3)cc2)n1C`, in [14], the IC50 was greater than 100 µM.

Consider `Cc1c(NCS(=O)(=O)O)c(=O)n(C2CCCCC2)n1C`, for which the IC50 in assay [14] was 2.53 µM.

With `CCCn1c(C)c(NCS(=O)(=O)O)c(=O)n1-c1ccccc1`, the IC50 in assay [14] was 6.02 µM.

As for `Cn1c(CO)c(NCS(=O)(=O)O)c(=O)n1-c1ccccc1`, in [14], the IC50 amounted to 22.7 µM.

Regarding `Cn1c(C2CC2)c(NCS(=O)(=O)O)c(=O)n1-c1ccccc1`, the IC50 in assay [14] is 4.65 µM.

As for `CCCc1c(NCS(=O)(=O)O)c(=O)n(-c2ccccc2)n1C`, the IC50 in assay [14] is greater than 100 µM.

Take `Cc1c(NCS(=O)(=O)O)c(=O)n(-c2cccc(-c3ccoc3)c2)n1C`: the IC50 in assay [14] was determined as 5.89 µM.

Take `Cc1c(NCS(=O)(=O)O)c(=O)n(-c2cccc(Br)c2)n1C`: in assay [14], the IC50 was 10.3 µM.

`Cc1c(NCS(=O)(=O)O)c(=O)n(-c2ccccc2-c2ccccc2)n1C`: the IC50 in [14] turned out to be 4.21 µM.

Consider `O=c1oc2cc(O)ccc2s1` [TIOXOLONE], for which the inhibition entry in the assay listed under Homo sapiens [4] is “Active”. Moreover, the IC50 in assay [15] came out at 5.18 µM.

`Cc1c(NCS(=O)(=O)O)c(=O)n(-c2ccccc2)n1C`: the IC50 in [14] came to 2.37 µM.

Take `Cc1c(NCS(=O)(=O)O)c(=O)n(-c2cccc(-c3ccccc3)c2)n1C`: in assay [14], the IC50 is greater than 100 µM.
